In patent US20220306640A1, “HYDANTOIN DERIVATIVE” (ONO PHARMACEUTICAL CO., LTD., priority 2019, published 2022):

How the values were obtained:
[1] = target: T1, DDR1 (Homo sapiens, UniProt Q08345); assay: Measurement of DDR1 inhibitory activity (LanthaScreen system, in vitro test); type: binding; details: GST-DDR1, Kinase tracer 178
T1 construct: purchased Invitrogen
Protocol: Biological Experiment Example 1: Measurement of an DDR1 Inhibitory Activity (In Vitro Test)
An DDR1 enzyme inhibitory activity was measured by using LanthaScreen (registered trademark) system (Invitrogen) based on the attached instruction. The reagents used are shown below.
Assay buffer: 5× Kinase buffer A (Invitrogen) was diluted 5-fold with ddH2O.
1× Kinase Buffer A: 50 mmol/L HEPES pH 7.5, 10 mmol/L MgCl2, 1 mmol/L EGTA, 0.01% Brij-35.
2×DDR1 Solution: a solution containing […] GST-DDR1 (Invitrogen) was prepared by using Assay buffer.
2× Tracer/antibody solution: a solution containing 20 nmol/L Kinase tracer 178 (Invitorgen) and […] Eu-Anti-GST Antibody (Invitorogen) was prepared by using Assay buffer. Test compound solution: a solution containing a test compound of 2-fold concentration with respect to the final concentration was prepared by 50-fold diluting a DMSO solution of test compound of each concentration with the Assay buffer.
• 1 Add 5 μL 2×DDR1 Solution to proxiplate (PerkinElmer) • 2 Add 5 μL test compound solution to proxiplate • 3 Incubate for 15 min at RT • 4 Add 5 μL 2× Tracer/Antibody solution to all well Incubate 1 h at RT • 6 Read LANCE Eu on Envision (PerkinElmer) (Ex: 320 nm/Em 665 nm & 615 nm)
In the low control group, 5 μL Assay buffer was added instead of 5 μL 2×DDR1 Solution and the final 1% DMSO solution was added instead of test compound solution.
In the high control group, the final 1% DMSO solution was added instead of test compound solution.
(§1) The inhibition rate (%) in the test compound group was calculated based on the following mathematical formula.
% inhibition=100−100*(assay value of test compound−A)/(B−A) [Math. 1]
A: average value of low control group B: average value of high control group
Values of 50% inhibition rate (IC50 values) of the test compound were calculated from the inhibition curve based on the inhibition rate of the test compounds in each concentration.

[2] = target: T2, DDR1 phosphorylation in T-47D (ATCC, HTB-133) cells (Homo sapiens, UniProt Q08345); assay: Measurement of DDR1 phosphorylation suppression rate by using T-47D cells (p-DDR1 ELISA); type: cell-based; details: collagen Type I 10 μg/ml, p-DDR1 (panTyr) ELISA
T2 construct: host or cells: T-47D
Protocol: Biological Example 2: Measurement of DDR1 Phosphorylation Suppression Rate by Using T-47D (ATCC, HTB-133) cells
T-47D cells should be in culture for at least 7 days before using in the assay.
Cell culture medium: RPMI 1640 (HyClone) containing 10% Heat-FBS (HyClone) was prepared.
Assay medium: RPMI 1640 containing 0.1% BSA (solarbio) was prepared.
Collagen Type I (rat tail) solution: Assay medium containing 200 μg/mL Collagen I, rat tail (Gibco) was prepared.
Cell lysis buffer: a solution containing IX cell lysis buffer (CST) and 1× protease and phosphatase inhibitor cocktail (Thermofisher) was prepared by using ddH2O.
• 1. Collect cells into tubes and centrifuge at 1200 rpm for 5 min, at room temperature. Re-suspend the cells in cell culture medium pre-warmed to room temperature. • 2. Count cells and suspend at a density of 2×10^5/ml of cell culture medium. Plate the cells at 100 μL per well (Corning 3599 96-well plate, 2×10^4 cells per well final), mixing the cells well between each draw of the pipettor. • 3. Put lid on cell plate and place into the incubator at 37° C., 5% CO2 • 4. Culture cell overnight
• 1. Remove the plate from the incubator • 2. Cell medium is replaced with the 90 μL Assay medium.
• 1. Compound plates are pre-titrated using DMSO (10-fold dilution for 6 points) • 2. Dilute test compound using assay medium; Transfer 1 μL compound to other 96 well plate and then add 49 μL assay medium to each well (50 fold dilution). • 3. Add 5 μL the diluted test compound solution to the appropriate wells by pipettor. Compound final concentration is start from […] and DMSO final concentration is 0.1 • 4. Tap the plates gently to mix in compound. Reseal the plate with a lid and place in the incubator again, for 24 h.
• 1. Diluted collagen Type I in assay medium to the 200 μg/ml concentration • 2. Using the pipettor adds 5 μL of 200 μg/mL collagen Type I solution to the cell plate (compound well and High control well, collagen final conc. is 10 μg/ml). Add assay medium buffer to the control wells (low control well) • 3. Reseal the plate with a lid and place in the incubator. Incubate 24 h for collagen type I
• 1. After incubation, add 100 µL per well Cell lysis buffer. • 2. Incubate 30 min on ice, then freezing to −80° C. to get the fully cell lysates. • 3. Transfer cell lysates to new plate • 4. Centrifuge for 30 min (×4000 rpm) at 4° C. Then transfer the supernatant to a new plate.
p-DDR1 (panTyr) ELISA kit (CST) was used in the study. The measurement was carried out according to the attached instruction.
as §1
% inhibition=100−100*(assay value of test compound−A)/(B−A) [Math. 2]
A: average value of low control group B: average value of high control group Values of 50% inhibition rate (IC50 values) of the test compound were calculated from the inhibition curve based on the inhibition rate of the test compounds in each concentration.

[3] = target: KDR (Homo sapiens, UniProt P35968); assay: Evaluation of kinase selectivity: % inhibition rate of KDR at 1 μmol/L; type: biochemical; details: compound at 1 μmol/L
Protocol: (§2) Biological Example 3: Evaluation of Kinase Selectivity
(§3) % inhibition rate with respect to various kinases (for example KDR etc.) of 1 μmol/L the test compound is measured.
(§4) A general assay condition (substrates, cofactor, ATP concentrations and reaction time etc.) suitable for respective kinase enzyme inhibition activity test is used.
(§5) 1 Prepare the test compounds into 1 mmol/L DMSO solution. 2 Transfer 20 nL of stock to 384 assay plate. Use DMSO as High and Low controls.
(§6) 1 Prepare the 1.3× Enzyme solution containing enzyme, substrate and cofactors. 2 Add 15 μL of 1.3× Enzyme solutions to each well and incubate the plate at room temperature for 30 min. 3 Initiate the reaction by adding 5 μL of 4×ATP solution. The final volume of each well should be 20 μL. 4 Incubate the plate at room temperature for reaction and add 75 μL of stopping buffer (containing 0.5 mol/L EDTA) to terminate the reaction.
(§7) Analyze the sample of each well using EZ reader (PerkinElmer).
(§8) Calculate the % Inhibition using read conversion ratio (CR) following the equation as below.
(§9) Use well treated with DMSO as High Control Use well without enzyme as Low Control

[4] = target: T3, Flt-3 (Homo sapiens, UniProt P36888); assay: Evaluation of kinase selectivity: % inhibition rate of Flt-3 at 1 μmol/L; type: biochemical; details: compound at 1 μmol/L
T3 sequence (P36888 27-993): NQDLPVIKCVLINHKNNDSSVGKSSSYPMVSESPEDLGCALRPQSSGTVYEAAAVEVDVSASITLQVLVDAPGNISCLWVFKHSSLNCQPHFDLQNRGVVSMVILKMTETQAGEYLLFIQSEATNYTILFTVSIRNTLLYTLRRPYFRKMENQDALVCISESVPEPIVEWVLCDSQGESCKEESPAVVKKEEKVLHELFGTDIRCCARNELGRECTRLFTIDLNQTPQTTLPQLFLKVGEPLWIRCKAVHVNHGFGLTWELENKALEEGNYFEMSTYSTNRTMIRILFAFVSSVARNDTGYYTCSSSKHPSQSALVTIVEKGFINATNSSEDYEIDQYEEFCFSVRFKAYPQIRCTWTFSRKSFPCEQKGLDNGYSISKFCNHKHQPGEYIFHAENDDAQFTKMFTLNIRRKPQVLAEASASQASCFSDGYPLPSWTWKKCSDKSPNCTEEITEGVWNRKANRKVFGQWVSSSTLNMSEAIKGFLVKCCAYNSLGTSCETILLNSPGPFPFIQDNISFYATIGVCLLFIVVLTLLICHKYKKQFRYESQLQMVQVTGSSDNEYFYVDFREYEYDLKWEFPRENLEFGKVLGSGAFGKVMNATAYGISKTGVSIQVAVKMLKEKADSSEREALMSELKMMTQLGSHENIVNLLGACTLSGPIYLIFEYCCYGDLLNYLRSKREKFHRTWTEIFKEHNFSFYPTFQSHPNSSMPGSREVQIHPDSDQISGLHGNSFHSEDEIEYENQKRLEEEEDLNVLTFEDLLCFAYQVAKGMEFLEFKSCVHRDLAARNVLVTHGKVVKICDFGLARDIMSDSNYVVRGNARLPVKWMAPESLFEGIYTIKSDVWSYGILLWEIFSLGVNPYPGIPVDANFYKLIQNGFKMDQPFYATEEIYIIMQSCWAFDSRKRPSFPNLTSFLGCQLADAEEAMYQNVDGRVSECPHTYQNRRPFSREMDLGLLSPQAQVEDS
Protocol: as §2, §3, §4, §5, §6, §7, §8, §9

[5] = target: ROCK (Homo sapiens, UniProt O75116); assay: Evaluation of kinase selectivity: % inhibition rate of ROCK at 1 μmol/L; type: biochemical; details: compound at 1 μmol/L; read-out: % inhibition rate of ROCK2
Protocol: as §2, §3, §4, §5, §6, §7, §8, §9

T1 sequence (Q08345 19-913): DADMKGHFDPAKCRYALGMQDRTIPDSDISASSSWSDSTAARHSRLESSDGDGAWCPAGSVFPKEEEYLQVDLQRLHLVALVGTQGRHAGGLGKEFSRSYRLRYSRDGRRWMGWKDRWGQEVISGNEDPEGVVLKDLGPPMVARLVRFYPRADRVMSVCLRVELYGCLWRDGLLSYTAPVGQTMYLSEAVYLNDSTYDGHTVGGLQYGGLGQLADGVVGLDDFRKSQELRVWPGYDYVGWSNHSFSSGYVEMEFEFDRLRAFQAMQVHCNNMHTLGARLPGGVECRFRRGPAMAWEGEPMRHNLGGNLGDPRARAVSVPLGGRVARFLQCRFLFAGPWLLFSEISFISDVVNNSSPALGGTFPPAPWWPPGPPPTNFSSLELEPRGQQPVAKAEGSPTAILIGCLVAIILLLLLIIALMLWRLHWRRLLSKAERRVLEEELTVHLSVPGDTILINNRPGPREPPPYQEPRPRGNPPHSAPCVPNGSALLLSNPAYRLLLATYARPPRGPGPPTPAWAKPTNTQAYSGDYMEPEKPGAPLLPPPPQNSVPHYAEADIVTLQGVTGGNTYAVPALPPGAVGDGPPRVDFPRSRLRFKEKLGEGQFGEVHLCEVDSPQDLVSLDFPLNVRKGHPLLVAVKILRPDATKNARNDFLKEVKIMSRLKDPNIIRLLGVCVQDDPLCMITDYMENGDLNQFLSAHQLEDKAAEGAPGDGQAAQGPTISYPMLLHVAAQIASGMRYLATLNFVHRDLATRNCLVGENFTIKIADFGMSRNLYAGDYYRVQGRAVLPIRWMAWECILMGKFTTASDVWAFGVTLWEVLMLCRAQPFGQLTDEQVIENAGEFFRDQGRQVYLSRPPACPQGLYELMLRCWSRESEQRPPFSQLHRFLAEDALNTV
T2 sequence (Q08345 19-913): as above
KDR, sequence (P35968 20-1356, species assumed): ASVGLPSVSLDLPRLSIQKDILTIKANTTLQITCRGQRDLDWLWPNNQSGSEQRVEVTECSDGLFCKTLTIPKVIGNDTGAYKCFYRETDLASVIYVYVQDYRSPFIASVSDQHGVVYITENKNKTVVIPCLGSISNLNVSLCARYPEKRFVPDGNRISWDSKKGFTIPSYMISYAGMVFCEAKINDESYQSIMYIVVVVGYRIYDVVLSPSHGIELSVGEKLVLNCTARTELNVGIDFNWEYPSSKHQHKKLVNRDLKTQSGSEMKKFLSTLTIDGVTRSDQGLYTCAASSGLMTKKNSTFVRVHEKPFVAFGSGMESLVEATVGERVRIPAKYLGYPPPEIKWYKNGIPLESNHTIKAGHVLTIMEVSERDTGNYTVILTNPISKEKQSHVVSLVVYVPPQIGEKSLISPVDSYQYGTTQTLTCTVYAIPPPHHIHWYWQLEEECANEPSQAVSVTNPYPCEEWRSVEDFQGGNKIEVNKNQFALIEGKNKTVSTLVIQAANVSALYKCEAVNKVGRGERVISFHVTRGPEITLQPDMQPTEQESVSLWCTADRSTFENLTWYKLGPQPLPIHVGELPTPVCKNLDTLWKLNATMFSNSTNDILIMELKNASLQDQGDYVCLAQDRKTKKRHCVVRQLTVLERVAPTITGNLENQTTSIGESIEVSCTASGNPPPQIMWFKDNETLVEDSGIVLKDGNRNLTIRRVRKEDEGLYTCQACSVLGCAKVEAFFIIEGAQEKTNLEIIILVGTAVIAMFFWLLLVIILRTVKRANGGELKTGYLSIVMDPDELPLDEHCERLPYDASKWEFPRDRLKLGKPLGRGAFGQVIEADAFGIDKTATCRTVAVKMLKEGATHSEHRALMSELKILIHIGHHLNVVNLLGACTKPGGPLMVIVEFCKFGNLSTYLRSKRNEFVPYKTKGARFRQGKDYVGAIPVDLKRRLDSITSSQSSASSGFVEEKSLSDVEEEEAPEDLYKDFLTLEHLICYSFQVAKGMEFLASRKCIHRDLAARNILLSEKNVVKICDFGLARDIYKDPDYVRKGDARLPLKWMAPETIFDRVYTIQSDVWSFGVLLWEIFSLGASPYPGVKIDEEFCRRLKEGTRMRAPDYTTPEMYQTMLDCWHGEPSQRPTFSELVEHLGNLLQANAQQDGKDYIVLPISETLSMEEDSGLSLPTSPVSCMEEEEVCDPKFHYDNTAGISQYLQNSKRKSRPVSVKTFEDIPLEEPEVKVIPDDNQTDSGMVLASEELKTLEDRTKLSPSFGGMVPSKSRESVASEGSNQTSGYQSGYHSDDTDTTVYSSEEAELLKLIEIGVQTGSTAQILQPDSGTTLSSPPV
ROCK, sequence (O75116 whole entry): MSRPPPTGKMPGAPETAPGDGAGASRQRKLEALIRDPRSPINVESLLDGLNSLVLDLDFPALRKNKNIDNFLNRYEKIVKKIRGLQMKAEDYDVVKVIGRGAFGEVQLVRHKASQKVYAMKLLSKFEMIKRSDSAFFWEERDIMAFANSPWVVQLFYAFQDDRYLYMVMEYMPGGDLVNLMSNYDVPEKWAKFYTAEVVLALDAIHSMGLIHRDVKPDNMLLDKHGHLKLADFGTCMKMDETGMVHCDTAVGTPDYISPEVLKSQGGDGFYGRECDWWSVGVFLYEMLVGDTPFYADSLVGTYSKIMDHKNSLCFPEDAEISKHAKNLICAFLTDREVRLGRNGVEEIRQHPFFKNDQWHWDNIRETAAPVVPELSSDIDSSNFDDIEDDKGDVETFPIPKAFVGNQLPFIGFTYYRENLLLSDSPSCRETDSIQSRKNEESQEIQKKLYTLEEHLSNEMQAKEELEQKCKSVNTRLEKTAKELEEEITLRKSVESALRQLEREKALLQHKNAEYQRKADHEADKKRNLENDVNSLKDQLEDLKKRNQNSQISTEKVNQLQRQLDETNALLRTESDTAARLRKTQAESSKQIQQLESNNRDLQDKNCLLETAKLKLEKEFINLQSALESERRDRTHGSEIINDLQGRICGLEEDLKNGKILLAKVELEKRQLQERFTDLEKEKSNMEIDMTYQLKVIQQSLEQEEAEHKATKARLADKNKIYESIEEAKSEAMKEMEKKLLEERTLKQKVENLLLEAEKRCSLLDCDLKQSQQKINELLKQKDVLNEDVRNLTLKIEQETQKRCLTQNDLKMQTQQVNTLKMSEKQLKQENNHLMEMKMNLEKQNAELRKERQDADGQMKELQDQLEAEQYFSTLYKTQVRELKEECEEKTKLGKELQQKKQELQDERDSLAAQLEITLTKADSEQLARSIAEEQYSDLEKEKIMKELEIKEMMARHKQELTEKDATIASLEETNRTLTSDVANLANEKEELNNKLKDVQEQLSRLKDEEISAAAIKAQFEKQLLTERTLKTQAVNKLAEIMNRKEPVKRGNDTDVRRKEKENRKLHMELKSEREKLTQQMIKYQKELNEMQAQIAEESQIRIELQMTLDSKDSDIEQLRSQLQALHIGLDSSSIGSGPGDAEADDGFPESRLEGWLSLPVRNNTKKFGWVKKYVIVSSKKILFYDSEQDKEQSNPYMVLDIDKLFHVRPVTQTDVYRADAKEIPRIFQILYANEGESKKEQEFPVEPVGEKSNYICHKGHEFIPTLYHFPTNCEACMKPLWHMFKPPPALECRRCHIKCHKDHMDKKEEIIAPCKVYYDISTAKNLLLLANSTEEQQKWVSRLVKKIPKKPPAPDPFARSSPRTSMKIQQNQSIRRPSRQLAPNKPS

Row | Compound | IC50 [1] | IC50 [2] | inhibition at 1 µM [3] | inhibition at 1 µM [4] | inhibition at 1 µM [5]
1 | O=C1CN(c2cncc(C(F)(F)F)c2)C(=O)N1c1ccc(Oc2cnc3[nH]ncc3c2)cc1 [Example 1(11), 3-[4-(1H-pyrazolo[3,4-b]pyridin-5-yloxy)phenyl]-1-[5-(trifluoromethyl)-3-pyridinyl]-2,4-imidazolidinedione] | 1 nM | 1 nM | 2% | 16% | -2%
2 | Cc1cc(Oc2ccnc(N)n2)ccc1N1C(=O)CN(c2cncc(C(F)(F)F)c2)C1=O [Example 2, 3-{4-[(2-amino-4-pyrimidinyl)oxy]-2-methylphenyl}-1-[5-(trifluoromethyl)-3-pyridinyl]-2,4-imidazolidinedione] | 5 nM | 3 nM | 1% | 4% | -5%
3 | O=C1CN(c2cncc(C(F)(F)F)c2)C(=O)N1C12CCC(Oc3ncnc4[nH]ccc34)(CC1)C2 [Example 3(65), 3-[4-(7H-pyrrolo[2,3-d]pyrimidin-4-yloxy)bicyclo[2.2.1]hept-1-yl]-1-[5-(trifluoromethyl)-3-pyridinyl]-2,4-imidazolidinedione] | 3 nM | 2 nM | -1% | 5% | 5%
4 | O=C1CN(c2cncc(C(F)(F)F)c2)C(=O)N1C12CCC(Oc3ncnc4[nH]cc(F)c34)(CC1)C2 [Example 42(1), 3-{4-[(5-fluoro-7H-pyrrolo[2,3-d]pyrimidin-4-yl)oxy]bicyclo[2.2.1]hept-1-yl}-1-[5-(trifluoromethyl)-3-pyridinyl]-2,4-imidazolidinedione] |  | 8 nM | -3% | -2% | -8%
